Data on 1 compound can be found in paper PMC5234788 (PLoS ONE, 2017).

Where “and” joins values, the source holds several entries; their conditions need not be identical. Equal entries are not always repeated.

Assay [1] concerns male CD-1 ICR mice. The assay can be described thus: Locomotor activity test. The settings on record: l-THBr 1, 5, or 10 mg/kg, i.p., 60 min. The format is in vivo. An excerpt:
The spontaneous activity video analysis system consists of 8 sound-attenuated chambers (40 cm × 40 cm × 65 cm) with a built-in infrared camera. (JL Behave, Shanghai Ji-Liang Software Technology Co., Ltd). During the behavioral tests, the experimenter was outside the testing room, and the chambers were cleaned between successive runs. Forty male CD-1 ICR mice were allowed to acclimate for three days in home cages and were handled for another three days to minimize stress after arrival in the animal facility. On the following day, after habituation to the activity chambers for 60 min, mice were administered vehicle, diazepam (DZP, 2 mg/kg, i.p.) or l–THBr (1, 5, or 10 mg/kg, i.p.) and immediately placed into the test chambers to record their locomotor activity for 60 min.

The target of assay [2] is T1, human D2 dopamine receptor (Homo sapiens, UniProt P14416).
T1 construct: host or cells: HEK293
The assay can be described thus: biochemical. The format is biochemical. An excerpt:
D2-D4 dopamine receptors and 5-HT1A serotonin receptors are Gαi-coupled receptors that mediate inhibitory neurotransmission. We conducted [^35S]GTPγS assays to determine the agonist or antagonist properties of l-THBr at D2 dopamine receptors or 5-HT1A serotonin receptors. HEK293 cells stably expressing D2 receptors were provided by the Beijing Institute of Pharmacology and Toxicology (Beijing, China). The membrane preparation of D2-expressing HEK293 cells and rat hippocampal tissues highly expressing 5-HT1A receptors were prepared as previously described. Briefly, 10 SD rats were anesthetized and decapitated, and the hippocampi were quickly dissected and stored at -80°C until use. D2 receptor-expressing HEK293 cells and the hippocampal tissue were each homogenized at 4°C in 50 mM Tris-HCl buffer (pH 7.4). The homogenates were centrifuged at 2500 × g for 6 min, and the supernatant was further centrifuged for 20 min at 40000 × g. Membranes were re-suspended in Tris-HCl buffer and stored at -80°C until use.
[^35S]GTPγS assays were performed in a total volume of 0.5 ml at 4°C. […] Bound radioactivity was determined by liquid scintillation counting. Drug effects were expressed as drug-induced increase in binding over basal binding (binding in the absence of drugs). […] The inhibitory effect of l–THBr was determined by a similar equation to obtain the IC50 values.

Assay [3] deals with T2, Serotonin, 5HT3.
T2 construct: Caliper Lifescience
In words: Radio-ligand binding assay, Serotonin 5HT3. As to conditions: 10 μM l-THBr; radioligand [3H]GR 65630. The method, then: (§1) To determine the possible targets of l-THBr action, the binding affinities of l-THBr to neurotransmitter receptors known to be involved in sedation, hypnosis and anxiety were investigated. Radio-ligand binding assays were performed by Caliper Lifescience (Hopkinton, MA, USA). The screening was carried out at a concentration of 10 μM l–THBr to test its ability to inhibit the binding of radioligands to their corresponding receptors. The results were expressed as percentage of inhibition of labeled ligand binding to individual receptors. Significant binding activity was defined as ≥50%.

Assay [4] relates to male CD-1 ICR mice. The assay can be described thus: Light-dark box test. The format is in vivo. The settings on record: l-THBr 1 or 5 mg/kg i.p., 30 min before test, P < 0.05 vs vehicle. An excerpt:
The light-dark box test is a sensitive model to detect activity in disorders related to anxiety, based on the innate aversion of rodents to brightly lit areas and on their spontaneous exploratory behavior in response to a novel environment. The light-dark transition box is a polypropylene animal cage (44 cm × 21 cm × 21 cm), which is divided into two compartments, a light box (illuminated by a 60 W light source with 1000 lx light intensity) and a dark box. Forty-eight male CD-1 ICR mice were placed in the light box 30 min after l–THBr or DZP injection and allowed to move freely to both boxes for 5 min. The number of transitions between the two boxes were recorded by a video camera.

For assay [5], the target named is D1 receptor (Homo sapiens, UniProt P21728). The assay can be described thus: cAMP assay for D1 receptor activity in CHO cells. The format is cell-based. From the text: Dopamine receptors can be categorized into two classes: Gαs protein coupled receptors (D1 and D5), or Gαi protein coupled receptors (D2, D3, and D4). Activation of D1 receptors can excite adenylate cyclase activity and increase cyclic adenosine monophosphate (cAMP). cAMP assays were used to determine the agonist or antagonist properties of l-THBr at the dopamine D1 receptor.
CHO K1 cells stably expressing D1 receptors were purchased from Genscript (Catalogue Number: M00247, Gene Number NM_000794). The cells were seeded in Ham’s F12 containing 10% fetal bovine serum and 200 μg/ml zeocin. On the day of the assay, 5 μl of cell suspension (3000 cells) was seeded on a 384-well plate. The assay was performed according to the manufacturer’s instructions. To test for agonist effects at the D1 receptor, the compounds (a known D1 agonist […] or l-THBr) were added from stocks two-fold more concentrated than the final concentration. […] After incubation (30 min at room temperature), 10 μL of HTRF reagents (cAMP-XL665 and anti-cAMP cryptate) were added. The signal was quantified after one hour of incubation at room temperature. The fluorescence intensity ratio (A665nm/A620nm x10^4) was calculated.
For orientation: Cyclic AMP is a second messenger, typically raised through Gs and lowered through Gi signalling.

Assay [6] relates to GABA A, Agonist Site. The assay can be described thus: Radio-ligand binding assay, GABA A agonist site. As to conditions: 10 μM l-THBr; radioligand [3H]GABA. On the procedure:
as §1

The subject of assay [7] is T3, GABA A, BDZ, Alpha 1 site.
T3 construct: Caliper Lifescience
The assay can be described thus: Radio-ligand binding assay, GABA A BDZ alpha 1 site. The settings on record: 10 μM l-THBr; radioligand [3H]Flunitrazepam. The method, then: as §1

Assay [8] has as its system T4, Serotonin, 5HT1A (h).
T4 construct: Caliper Lifescience
The assay can be described thus: Radio-ligand binding assay, Serotonin 5HT1A. As to conditions: 10 μM l-THBr. More on the design: species or system human. The method, then:
as §1

Assay [9] concerns T5, Dopamine, D1 (h).
T5 construct: Caliper Lifescience
The assay can be described thus: Radio-ligand binding assay, Dopamine D1. The arrangement: species or system human. The settings on record: 10 μM l-THBr. On the procedure:
as §1

In assay [10] the test system is T6, Glutamate, NMDA, Glycine (stry-insens Site (Ionotropic)).
T6 construct: Caliper Lifescience
In words: Radio-ligand binding assay, Glutamate NMDA glycine site. As to conditions: 10 μM l-THBr; radioligand [3H]-MDL-105,519. The method, then: as §1

In assay [11] the test system is T7, Serotonin, 5HT5A (h).
T7 construct: Caliper Lifescience
The assay can be described thus: Radio-ligand binding assay, Serotonin 5HT5A. More on the design: species or system human. As to conditions: 10 μM l-THBr; radioligand [3H]-LSD. The method, then:
as §1

The subject of assay [12] is Glutamate, Kainate Site (Ionotropic). The assay can be described thus: Radio-ligand binding assay, Glutamate Kainate site. As to conditions: 10 μM l-THBr; radioligand [3H]Kainic acid. The method, then: as §1

D1 receptor, sequence (P21728 whole entry): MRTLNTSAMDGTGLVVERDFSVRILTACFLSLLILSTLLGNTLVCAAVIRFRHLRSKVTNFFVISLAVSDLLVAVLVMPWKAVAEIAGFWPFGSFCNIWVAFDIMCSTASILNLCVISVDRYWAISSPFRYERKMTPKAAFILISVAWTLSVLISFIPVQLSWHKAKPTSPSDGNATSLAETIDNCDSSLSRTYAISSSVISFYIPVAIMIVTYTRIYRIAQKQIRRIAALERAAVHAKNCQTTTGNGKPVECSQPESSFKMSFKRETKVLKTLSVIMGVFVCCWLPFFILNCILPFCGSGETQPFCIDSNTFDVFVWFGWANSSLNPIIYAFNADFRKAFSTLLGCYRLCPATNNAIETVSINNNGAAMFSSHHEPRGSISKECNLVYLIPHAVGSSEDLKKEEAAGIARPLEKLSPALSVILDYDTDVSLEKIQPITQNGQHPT
T1 sequence (P14416 whole entry): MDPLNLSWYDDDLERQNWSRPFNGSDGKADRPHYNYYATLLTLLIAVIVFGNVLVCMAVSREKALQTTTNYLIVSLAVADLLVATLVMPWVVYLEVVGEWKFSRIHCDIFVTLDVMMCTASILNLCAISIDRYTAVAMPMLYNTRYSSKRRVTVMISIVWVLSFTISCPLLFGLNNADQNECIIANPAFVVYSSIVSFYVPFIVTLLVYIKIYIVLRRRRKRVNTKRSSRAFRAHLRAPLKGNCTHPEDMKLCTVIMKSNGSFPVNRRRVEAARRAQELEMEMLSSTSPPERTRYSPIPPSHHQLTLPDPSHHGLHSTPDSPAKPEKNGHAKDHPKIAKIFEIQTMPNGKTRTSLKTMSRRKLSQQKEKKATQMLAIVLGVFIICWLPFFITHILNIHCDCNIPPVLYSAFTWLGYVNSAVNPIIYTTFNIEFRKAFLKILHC

Take `COc1ccc2c(c1O)CN1CCc3cc4c(cc3[C@@H]1C2)OCO4` [l-THBr, levo-tetrahydroberberrubine]: the “influence on locomotor activity (travel distance)” value in assay [1] is on record as “no influence”. In addition, the 50% inhibitory concentration (IC50) – broadly, the concentration that inhibits the measured activity by half – in assay [2] was 5.26 nM; in assay [5], 361 nM. Moreover, the “dose-dependent increase in [35S]GTPγS binding (agonist effect)” value in [2] is “but not l-THBr induced a dose-dependent increase”. In addition, the Average inhibition percentage is 23.02% in assay [3]; 7.89% in assay [6]; -3.30% in assay [7]; 78.31% in assay [8] (radioligand [3H]-8-OH-DPAT); 100.6% and 100.61% in assay [9] (radioligand [3H]-SCH23390); 1.79% in [10]. Further, the values for the Average inhibition percentage in assay [11] and in assay [12] were 23.79% and -0.89%, respectively. The “number of transitions between the light/dark sides” value in assay [4] was “increased”. Besides, the “dose-dependent increase in cAMP production (agonist effect)” value in [5] (CHO cells stably expressing the D1 receptor, agonist test) is reported as “but not l-THBr induced a dose-dependent increase”. Also, in [5] (CHO, read-out: maximum inhibition of cAMP production), the inhibition (usually the relative decrease from the control value, in per cent) at 10 µM was determined as 98.8%. Besides, the Activity result in assay [8] and in assay [9] was “Yes (Significant binding affinity of l-THBr was defined as greater than 50% inhibition of ligand binding)” throughout.
